Measurements from ChEMBL document CHEMBL1141082, “4-Anilino-7,8-dialkoxybenzo[g]quinoline-3-carbonitriles as potent Src kinase inhibitors” (J Med Chem, 2005).

What was measured:
[1] = molecular target: Cyclin-dependent kinase 4 (Homo sapiens, UniProt P11802); assay: Inhibitory concentration against CDK4
[2] = molecular target: Serine/threonine-protein kinase AKT (Homo sapiens, UniProt P31751+Q9Y243+P31749); assay: Inhibitory concentration against AKT; type: protein assay
[3] = molecular target: Receptor tyrosine-protein kinase erbB-2 (Homo sapiens, UniProt P04626); assay: nhibitory concentrations against ErbB-2
[4] = molecular target: Proto-oncogene tyrosine-protein kinase Src (Homo sapiens, UniProt P12931); assay: Inhibitory concentration against Src kinase
Mus musculus [5] = assay: Plasma levels in nude mouse after administration at a single dose of 50 mg/kg ip after 4 hr; type: functional; details: route intraperitoneal
Mus musculus [6] = assay: Plasma levels in nude mouse after administration at a single dose of 50 mg/kg ip after 8 hr; type: functional; details: route intraperitoneal
Mus musculus [7] = assay: Plasma levels in nude mouse after administration at a single dose of 50 mg/kg ip after 24 hours; type: functional; details: route intraperitoneal
Mus musculus [8] = assay: Plasma levels in nude mouse after administration at a single dose of 50 mg/kg ip after 0.5 hours; type: functional; details: route intraperitoneal
Mus musculus [9] = species: Mus musculus; details: dose 50 mg/kg; route intraperitoneal
Mus musculus [10] = assay: Plasma levels in nude mouse after administration at a single dose of 50 mg/kg ip after 4 hours; type: functional; details: route intraperitoneal
Mus musculus [11] = assay: Plasma levels in nude mouse after administration at a single dose of 50 mg/kg ip after 8 hours; type: functional; details: route intraperitoneal

Chain of Proto-oncogene tyrosine-protein kinase Src (P12931 2-536 limits assumed): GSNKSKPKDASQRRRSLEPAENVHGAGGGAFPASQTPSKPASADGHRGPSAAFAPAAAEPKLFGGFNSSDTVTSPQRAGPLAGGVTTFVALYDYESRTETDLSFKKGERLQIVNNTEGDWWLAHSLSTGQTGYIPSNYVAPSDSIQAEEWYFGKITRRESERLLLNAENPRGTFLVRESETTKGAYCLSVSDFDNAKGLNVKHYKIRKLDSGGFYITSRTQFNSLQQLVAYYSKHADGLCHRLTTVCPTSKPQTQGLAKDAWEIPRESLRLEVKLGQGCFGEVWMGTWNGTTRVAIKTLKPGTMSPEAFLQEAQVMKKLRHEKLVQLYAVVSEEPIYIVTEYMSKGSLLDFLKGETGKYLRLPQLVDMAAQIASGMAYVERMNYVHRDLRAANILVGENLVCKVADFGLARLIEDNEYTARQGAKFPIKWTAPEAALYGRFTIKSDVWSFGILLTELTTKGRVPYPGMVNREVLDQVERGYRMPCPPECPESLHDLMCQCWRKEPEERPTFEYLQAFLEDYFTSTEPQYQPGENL
Chain of Cyclin-dependent kinase 4 (P11802 whole entry): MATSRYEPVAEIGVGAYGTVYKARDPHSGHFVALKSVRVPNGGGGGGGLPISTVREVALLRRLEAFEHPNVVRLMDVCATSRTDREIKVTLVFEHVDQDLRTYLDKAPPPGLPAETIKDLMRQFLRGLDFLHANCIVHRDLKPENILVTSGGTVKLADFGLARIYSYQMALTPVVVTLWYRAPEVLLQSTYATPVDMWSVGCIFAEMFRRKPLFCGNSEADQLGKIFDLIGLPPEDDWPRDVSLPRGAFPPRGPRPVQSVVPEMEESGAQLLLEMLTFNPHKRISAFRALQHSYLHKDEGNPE
Chain of Receptor tyrosine-protein kinase erbB-2 (P04626 whole entry): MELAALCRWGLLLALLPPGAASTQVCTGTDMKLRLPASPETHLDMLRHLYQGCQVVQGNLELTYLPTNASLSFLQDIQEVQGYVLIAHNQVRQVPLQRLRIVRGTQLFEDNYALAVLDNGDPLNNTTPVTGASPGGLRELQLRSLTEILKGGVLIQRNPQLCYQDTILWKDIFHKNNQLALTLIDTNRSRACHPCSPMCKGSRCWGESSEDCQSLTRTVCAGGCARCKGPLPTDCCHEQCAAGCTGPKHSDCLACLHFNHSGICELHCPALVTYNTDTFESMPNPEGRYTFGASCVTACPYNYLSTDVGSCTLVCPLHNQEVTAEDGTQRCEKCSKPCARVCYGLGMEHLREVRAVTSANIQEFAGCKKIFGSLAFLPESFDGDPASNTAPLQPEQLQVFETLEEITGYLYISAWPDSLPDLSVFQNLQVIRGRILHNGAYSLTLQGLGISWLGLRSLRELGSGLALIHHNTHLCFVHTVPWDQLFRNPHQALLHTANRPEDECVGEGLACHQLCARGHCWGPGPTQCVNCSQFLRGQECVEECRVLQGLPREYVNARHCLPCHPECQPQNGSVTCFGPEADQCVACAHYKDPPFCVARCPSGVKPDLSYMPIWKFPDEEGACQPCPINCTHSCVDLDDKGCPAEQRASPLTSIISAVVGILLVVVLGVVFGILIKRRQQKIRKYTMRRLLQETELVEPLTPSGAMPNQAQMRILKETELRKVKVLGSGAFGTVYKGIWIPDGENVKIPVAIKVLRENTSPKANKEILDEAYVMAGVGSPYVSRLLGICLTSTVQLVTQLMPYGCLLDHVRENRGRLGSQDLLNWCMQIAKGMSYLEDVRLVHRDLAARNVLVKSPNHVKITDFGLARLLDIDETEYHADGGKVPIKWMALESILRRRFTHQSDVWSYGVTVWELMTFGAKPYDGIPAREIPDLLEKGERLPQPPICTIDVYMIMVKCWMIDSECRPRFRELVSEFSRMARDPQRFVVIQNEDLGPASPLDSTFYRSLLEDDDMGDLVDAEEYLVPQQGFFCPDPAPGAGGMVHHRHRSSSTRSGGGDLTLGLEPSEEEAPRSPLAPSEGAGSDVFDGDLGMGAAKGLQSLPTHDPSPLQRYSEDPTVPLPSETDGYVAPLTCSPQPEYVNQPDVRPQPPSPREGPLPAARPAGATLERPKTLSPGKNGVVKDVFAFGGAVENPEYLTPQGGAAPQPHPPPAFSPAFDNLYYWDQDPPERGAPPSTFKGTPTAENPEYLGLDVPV

With `COc1cc(Nc2c(C#N)cnc3cc4cc(OCCN5CCOCC5)c(OC)cc4cc23)c(Cl)cc1Cl` the IC50 [1] was > 10000 nM, the IC50 [2] was > 10000 nM and the IC50 [3] was 2500 nM. It also gave an IC50 [4] of 0.46 nM, an Activity (Mus musculus [5]) of 1.9 µg/mL and an Activity (Mus musculus [6]) of 0.3 µg/mL. For the same molecule, the Activity (Mus musculus [7]) was 0.02 µg/mL, the Activity (Mus musculus [8]) was 2.1 µg/mL and the Growth inhibiton (Mus musculus [9]) was 25%.
Work on `COc1cc(Nc2c(C#N)cnc3cc4cc(OCCN5CCN(C)CC5)c(OC)cc4cc23)c(Cl)cc1Cl` yielded an Activity (Mus musculus [10]) of 0.63 µg/mL, an Activity (Mus musculus [11]) of 0.7 µg/mL and an Activity (Mus musculus [7]) of 0.24 µg/mL. It also gave an Activity (Mus musculus [8]) of 1.3 µg/mL and a Growth inhibiton (Mus musculus [9]) of 20%.
